Patent US10259799B2, “Hydroxyl pyranone compound, method for producing same, and cosmetics composition comprising compound” (AMOREPACIFIC CORPORATION, priority 2015, dated 2019)

Test system: human adipose tissue derived mesenchymal stem cells (hAT-MSCs)
Assay: Adipocyte differentiation promoting effect: adiponectin in culture medium by ELISA
Type: cell-based
Settings: for expression level of adiponectin (in words): hAT-MSCs with IDX, 14th day, comment on Table 1; for Adiponectin (pg/ml, Avg ± S.D.): medium collected on 14th day of differentiation
Method: In order to examine the adipocyte differentiation promoting effect of the compounds prepared in the Example, the following test was carried out.
Adiponectin is a typical protein hormone secreted from adipocytes. It has been reported that as adipocytes are differentiated, the expression of adiponectin is increased. Therefore, the adipocyte differentiation promoting effect was confirmed by measuring the amount of adiponectin expressed in the cell culture medium when treated with the novel compound of the present invention, which is an indicator of adipocyte differentiation promoting.
The adipocyte differentiation was performed by culturing human adipose tissue derived mesenchymal stem cells (hAT-MSCs) from Lonza Inc. (Walkersville, Md., USA) according to Lonza's guidelines. The adipocyte differentiation was carried out using the method recommended by Lonza Inc., except that the adipocyte differentiation of adipose-derived mesenchymal stem cells is induced by using troglitazone (TRO) instead of indomethacin. Specifically, the mesenchymal stem cells were differentiated into adipocytes by adding the medium for adipocyte differentiation (hereinafter referred to as IDX), which was prepared by mixing […] of insulin, […] of Dexamethasone (DEXA), 0.5 mM of isobutylmethylxanthine (IBMX) and […] of TRO, to the culture medium of mesenchymal stem cells, and then culturing it.
In order to determine the expression level of adiponectin, after the medium for adipocyte differentiation was collected on the 14th day of differentiation, the amount of adiponectin was quantified using the Adiponectin ELISA Kit (R & D systems, Cat. No. DY1065) (each data value was corrected by the control group). The specific measurement method using Adiponectin ELISA Kit was as follows.
First, the capture antibody was reacted in a 96-well plate, washed with washing buffer solution, and then the material shown in Table 1 below was added and reacted at room temperature for 2 hours. Thereafter, while washing three times every time when going through each step, the detection antibody, the HRP enzyme, the substrate solution, and the stop solution were added in order and reacted for the time indicated in the protocol. After the final reaction, the absorbance was measured at a wavelength of 450 nm using a spectrophotometer.

Row | Compound | expression level of adiponectin (in words) | Adiponectin (pg/ml, Avg ± S.D.)
1 | O=c1cc(CO)occ1O [Kojic acid] | not increased | –
2 | O=C(/C=C/c1ccc2c(c1)OCO2)OCc1cc(=O)c(O)co1 [Seletinoid G] | – | 1505 ± 109 pg/mL
3 | CC1=C(/C=C/C(=O)OCc2cc(=O)c(O)co2)C(C)(C)CCC1 [compound of example, 3-(2,6,6-trimethyl-cyclohex-1-enyl)-propenoic acid 5-hydroxy-4-oxo-4H-pyran-2-ylmethyl ester] | increases almost similarly to that with Glibenclamide | 1804 ± 110 pg/mL
